Assay [1] relates to HaCaT (human keratinocyte) cells. Put plainly: In vitro cytotoxicity, PrestoBlue assay, HaCaT (non-tumorigenic). The format is cell-based. The note with it: Homo sapiens, 48 h, read-out: IC50 ± SD, HaCaT.
Assay [2] has as its system LoVo (colorectal cancer) cells. Put plainly: In vitro cytotoxicity, PrestoBlue assay, LoVo. The format is cell-based, human. The note with it: Homo sapiens, 48 h, read-out: IC50 ± SD, LoVo. On the procedure: (§1) The synthesized compounds were tested and evaluated for their cytotoxicity using an in vitro cytotoxicity assay. We studied five cancer cell lines and one non-cancerous cell line. The cells were purchased from the American Type Culture Collection (ATCC), United States, including HeLa (cervical), LoVo (colorectal), MCF-7 (breast), SKOV3 (ovarian), B16F10 (murine melanoma), and HaCaT (human keratinocyte). Dulbecco’s modified Eagle’s medium (containing 10% FBS) was used to culture HeLa, MCF-7, B16F10, and HaCaT cells, while RPMI 1640 medium (containing 10% FBS) was used for SKOV3 and LoVo cells. The cells were cultured in 25 cm^2 culture flasks (Corning, Corning, NY, USA) in a humidified atmosphere of 5% CO2 at 37 °C and passaged every three days with standard Trypsin-EDTA solution (Gibco, Thermo Fisher Scientific, Waltham, MA, USA). All compounds were initially prepared as stock solutions at a concentration of 10 mM (in DMSO). Serial dilutions were performed in the indicated medium to achieve the required concentration gradient of compounds (20 µM, 10 µM, 5 µM, 2.5 µM, 1.25 µM, 0.625 µM, 0.312 µM). The maximum percentage of DMSO used in the compound solutions was 0.1%, based on the procedure previously described by our group.
(§2) The PrestoBlue assay was performed according to the method previously reported by Strus et al.. The cells (LoVo and B16F10) were seeded in the indicated medium in a 96-well culture plate (Nest Biotechnology) at a density of 1 × 10^4 cells per well (100 µL) and incubated at 37 °C in a 5% CO2 atmosphere. After 24 h of incubation, 100 µL aliquots of the compounds in medium were added to each well, and the cells were further incubated for 48 h. After 48 h, the old medium was removed, and 100 µL of fresh medium was added. Then, 10 µL of PrestoBlue solution (Thermo Fisher Scientific, Waltham, MA, USA) was added to each well and incubated for 60 min. The fluorescence intensity was measured with excitation at 544 nm and emission at 615 nm using a Fluorstar microplate reader (BMG Labtech, Ortenberg, Germany). The results were expressed as a percentage of the intensity relative to that of control cells (non-treated cells).
(§3) Data analysis was carried out using GraphPad Prism 5.0.3. Calculations were performed using MS-Excel version 2021. The cytotoxic effect was expressed as the relative viability of treated cells (percentage growth control) and was calculated as follows: % relative viability = Ae−Ab/Ac−Ab×100% , where Ae is experimental absorbance/fluorescence intensity, Ac is the absorbance/ fluorescence intensity of growth control (only cells with medium), and Ab is the absorbance/fluorescence intensity of a blank (only medium). The IC50 values were obtained by using the sigmoidal dose–response function in GraphPad Prism. The results were expressed as mean ± standard deviation (SD).

The test system of assay [3] is MCF-7 (breast cancer) cells. Put plainly: In vitro cytotoxicity, crystal violet assay, MCF-7. The format is cell-based, human. The note with it: Homo sapiens, MCF7, 48 h, MCF-7, crystal violet assay, read-out: IC50 ± SD, MCF-7. The protocol: as §1
(§4) This assay was performed in reference to the method already described. In brief, the cell lines (HeLa, MCF-7, and SKOV-3) were seeded in the indicated medium in a 96-well culture plate (Nest Biotechnology, Wuxi, China) at a density of 1 × 10^4 cells per well (100 µL) in quadruplicates and then incubated at 37 °C in a 5% CO2 atmosphere. After 24 h of incubation, 100 µL aliquots of the compounds in medium at increasing concentrations were added to each well, and the cells were further incubated for 48 h. After the incubation period, the cells were washed with PBS twice, and then with 70% ethanol, followed by staining with 0.05% crystal violet solution in water (ChemPur, Piekary Slaskie, Poland) for 20 min. The excess crystal violet was washed out with distilled water several times. The stained cells then solubilized in 1% Triton™ X-100 Surfact-Amps (POCH SA, Gliwice, Poland) or 10% PBS. The absorbance of each well was measured using Fluostar plate reader at […].
as §3

In assay [4] the test system is B16F10 (murine melanoma) cells. Put plainly: In vitro cytotoxicity, PrestoBlue assay, B16F10. The format is cell-based. The note with it: Mus musculus, B16-F10, 48 h, read-out: IC50 ± SD, B16F10. The protocol: as §1, §2, §3
Assay [5] concerns cancer cell lines (MCF-7, SKOV-3, B16F10, LOVO, and HeLa) and HaCaT. Put plainly: In vitro cytotoxicity assay, results summarised over the cell line panel. The format is cell-based. The protocol: The cytotoxicity properties of semi-synthesized compounds 7–15 was evaluated against five types of cancer cell lines including, human: HeLa (cervix cancer), LoVo (colorectal cancer), MCF-7 (breast cancer), SKOV-3 (ovarian cancer), and murine: B16F10 (malignant melanoma). Thus, various human tumor cell lines representing major types of malignant cancers were included in the study protocol. Non-tumorigenic HaCaT cells were used as a representative model of normal (non-cancerous) cells. The crystal violet assay and PrestoBlue assay were used to evaluate the cytotoxic/cytostatic effect. We also included the cytotoxicity data of podophyllotoxin and etoposide as reference values.
as §1, §4, §2
Data analysis was carried out using GraphPad Prism 5.0.3. Calculations were performed using MS-Excel version 2021. […]

Assay [6] relates to HeLa (cervix cancer) cells. Put plainly: In vitro cytotoxicity, crystal violet assay, HeLa. The format is cell-based, human. The note with it: Homo sapiens, HeLa, 48 h, HeLa, crystal violet assay, 48 h; read-out: IC50 ± SD, HeLa. The protocol: as §1, §4, §3
In assay [7] the test system is SKOV-3 (ovarian cancer) cells. Put plainly: In vitro cytotoxicity, crystal violet assay, SKOV-3. The format is cell-based, human. The note with it: Homo sapiens, SK-OV-3, 48 h, SKOV-3, crystal violet assay, read-out: IC50 ± SD, SKOV-3. The protocol:
as §1, §4, §3

The next assay has as its system HeLa cells. The experiment in a line: Cell cycle analysis by flow cytometry (propidium iodide). The format is cell-based, human. The note with it: higher concentrations, after 48 h of exposure. The protocol: To determine the possible mechanisms of compounds 7 and 11 in inhibiting the proliferation of cancer cells, cell cycle analysis was performed with the flow cytometry method, as shown in Figure 3. Compound 7 was previously reported to inhibit proliferation of HaCaT cells via cell cycle arrest in G2/M [18]. As a reference, HeLa cells were treated with the indicated concentrations of compounds 7 and 11 for 24 h and 48 h, and the cell cycle phases distribution of treated cells was determined with the propidium iodide (PI) method, as previously described. The effects of novel podophyllotoxin derivatives on cell cycle phase distribution were evaluated in cells exposed to these compounds for 24 h or 48 h. Three compounds were compared: podophyllotoxin 1, KL-3 derivative 7, and its analog lacking the ester group 11.
For cell cycle analysis, HeLa cells were treated for 24 or 48 h with compounds 7 and 11 at concentrations of 5 µM and 10 µM. After the incubation period, the cells were fixed in a freezing medium (ice-cold 70% ethanol solution in PBS) and stored at −20 °C. The cell suspension was then centrifuged, washed with PBS, and resuspended in PBS containing 200 µg of DNase-free RNase A (Sigma) for 20 min at room temperature. Propidium iodide (Sigma) was added to a final concentration of 5 µg/mL, and the cells were stained for at least 2 h at 4 °C. The analysis was performed using a FACSCalibur flow cytometer (Becton Dickinson, San Diego, CA, USA) and analyzed with CellQuest software, v.3.3.
In general terms: In flow cytometry, cells or beads pass a laser one at a time.

Molecules are shown by their SMILES. Read-outs that look alike come from different tables or passages of the source.

`COc1cc([C@H]2CC(c3nc4ccccc4s3)=Cc3cc4c(cc32)OCO4)cc(OC)c1OC` [Compound 11]: the IC50 in assay [1] is 1900 ± 140 nM; in assay [2], 2880 ± 870 nM; in assay [3], 1980 ± 490 nM; in assay [4] it was 1930 ± 250 nM; in assay [5] (MCF-7, SKOV-3, B16F10, LOVO, HeLa, read-out: IC50, range over all tested cancer cell lines), 680 to 2880 nM; in assay [5] (read-out: IC50, range over all tested cell lines) it was 1540 to 2880 nM. The IC50 is 1540 ± 240 nM in assay [6] and 1790 ± 280 nM in assay [7]. Moreover, the “Cells arrested in the G2/M phase” value in the assay on HeLa cells is “approximately 43%”.

In general, IC50 refers to the point on the concentration scale where inhibition reaches its midpoint.
